Experiments:
Assay type in all cases: in vivo
Setaria faberi (SETFA) [1] = assay: Pre-Emergence Test (herbicidal, glasshouse pots); conditions: rate 250 g/ha, evaluated after 13 days, five-point scale
[2] = tested on: Ipomoea hederacea (IPOHE); assay: Pre-Emergence Test (herbicidal, glasshouse pots); conditions: evaluated after 13 days, five-point scale
[3] = tested on: Echinochloa crus-galli (ECHCG); assay: Pre-Emergence Test (herbicidal, glasshouse pots); conditions: evaluated after 13 days, five-point scale
[4] = tested on: Amaranthus retoflexus (AMARE); assay: Pre-Emergence Test (herbicidal, glasshouse pots); conditions: evaluated after 13 days, five-point scale
Zea mays (ZEAMX) [5] = assay: Pre-Emergence Test (herbicidal, glasshouse pots); conditions: evaluated after 13 days, five-point scale
[6] = tested on: Amaranthus palmeri (AMAPA); assay: Pre-Emergence Test (herbicidal, glasshouse pots); conditions: evaluated after 13 days, five-point scale
[7] = tested on: Amaranthus palmeri (AMAPA); assay: Post-Emergence Test (herbicidal, glasshouse pots); conditions: evaluated after 13 days
Experimental: (§1) Seeds of a variety of test species are sown in standard soil in pots (Setaria faberi (SETFA), Ipomoea hederacea (IPOHE), Echinochloa crus-galli (ECHCG), (Amaranthus retoflexus (AMARE), Zea mays (ZEAMX), and Amaranthus palmeri (AMAPA)). After 8 days cultivation under controlled conditions in a glasshouse (at 24° C./16° C., day/night; 14 hours light; 65% humidity), the plants arm sprayed with an aqueous spray solution derived from the formulation of the technical active ingredient in acetone/water (50:50) solution containing 0.5% Tween 20 (polyoxyethylene sorbitan monolaurate, CAS RN 9005-84-5). Rate of application is shown in g/ha in the tables below. The test plants are then grown in a glasshouse under controlled conditions in a glasshouse (at 24° C./16° C., day/night; 14 hours light; 65% humidity) and watered twice daily. After 13 days the test is evaluated for the percentage damage caused to the plant. The biological activities are shown in the following table on a five-point scale (5=81-100%; 4=61-80%; 3=41-60%; 2=21-40%; 1=0-20%; -=not tested).

[8] = tested on: Amaranthus retoflexus (AMARE); assay: Post-Emergence Test (herbicidal, glasshouse pots); conditions: evaluated after 13 days
Experimental: as §1

[9] = tested on: Echinochloa crus-galli (ECHCG); assay: Post-Emergence Test (herbicidal, glasshouse pots); conditions: evaluated after 13 days
Experimental: as §1

[10] = tested on: Ipomoea hederacea (IPOHE); assay: Post-Emergence Test (herbicidal, glasshouse pots); conditions: evaluated after 13 days
Experimental: as §1

Setaria faberi (SETFA) [11] = assay: Post-Emergence Test (herbicidal, glasshouse pots); conditions: rate 250 g/ha; evaluated after 13 days
Experimental: as §1

Zea mays (ZEAMX) [12] = assay: Post-Emergence Test (herbicidal, glasshouse pots); conditions: evaluated after 13 days
Experimental: as §1

Compound | percentage damage caused to the plant, SETFA (Setaria faberi (SETFA) [1]) | percentage damage caused to the plant, IPHOE ([2]; rate 250 g/ha) | percentage damage caused to the plant, ECHCG ([3]; rate 250 g/ha) | percentage damage caused to the plant, AMARE ([4]; rate 250 g/ha) | percentage damage caused to the plant, ZEAMX (Zea mays (ZEAMX) [5]; rate 250 g/ha) | percentage damage caused to the plant, AMAPA ([6]; rate 250 g/ha) | Post-Emergence Test AMAPA percentage damage (five-point scale) ([7]; rate 250 g/ha) | Post-Emergence Test AMARE percentage damage (five-point scale) ([8]; rate 250 g/ha) | Post-Emergence Test ECHCG percentage damage (five-point scale) ([9]; rate 250 g/ha) | Post-Emergence Test IPHOE percentage damage (five-point scale) ([10]; rate 250 g/ha) | percentage damage caused to the plant, IPHOE ([2]; rate 1000 g/ha) | percentage damage caused to the plant, ECHCG ([3]; rate 1000 g/ha) | percentage damage caused to the plant, AMARE ([4]; rate 1000 g/ha) | percentage damage caused to the plant, ZEAMX (Zea mays (ZEAMX) [5]; rate 1000 g/ha) | percentage damage caused to the plant, AMAPA ([6]; rate 1000 g/ha) | Post-Emergence Test AMAPA percentage damage (five-point scale) ([7]; rate 1000 g/ha) | Post-Emergence Test AMARE percentage damage (five-point scale) ([8]; rate 1000 g/ha) | Post-Emergence Test ECHCG percentage damage (five-point scale) ([9]; rate 1000 g/ha) | Post-Emergence Test IPHOE percentage damage (five-point scale) ([10]; rate 1000 g/ha) | Post-Emergence Test ZEAMX percentage damage (five-point scale) (Zea mays (ZEAMX) [12]; rate 1000 g/ha) | other results
CCn1c(Oc2ccc(S(C)(=O)=O)cc2)cc(=O)c(C(=O)O)c1-c1ccc(Cl)c(Cl)c1 [Compound 40, 2-(3,4-dichlorophenyl)-1-ethyl-6-(4-methylsulfonyl-phenoxy)-4-oxo-pyridine-3-carboxylic acid] | 2 (2=21-40%) | 3 (3=41-60%) | 0 | 1 (1=0-20%) | 0 | 1 (1=0-20%) | 2 (2=21-40%) | 2 (2=21-40%) | 1 (1=0-20%) | 4 (4=61-80%) |  |  |  |  |  |  |  |  |  |  | Post-Emergence Test SETFA percentage damage (five-point scale) (Setaria faberi (SETFA) [11]): 2 (2=21-40%); Post-Emergence Test ZEAMX percentage damage (five-point scale) (Zea mays (ZEAMX) [12]; rate 250 g/ha): 1 (1=0-20%)
CCn1c(Oc2cc(C)on2)cc(=O)c(C(=O)O)c1-c1ccc(Cl)c(Cl)c1 [Compound 46, 2-(3,4-dichlorophenyl)-1-ethyl-6-(5-methylisoxazol-3-yl)oxy-4-oxo-pyridine-3-carboxylic acid] | 1 (1=0-20%) | 2 (2=21-40%) | 1 (1=0-20%) | 2 (2=21-40%) | 0 | 1 (1=0-20%) | 0 | 2 (2=21-40%) | 1 (1=0-20%) | 3 (3=41-60%) |  |  |  |  |  |  |  |  |  |  | Post-Emergence Test SETFA percentage damage (five-point scale) (Setaria faberi (SETFA) [11]): 0; Post-Emergence Test ZEAMX percentage damage (five-point scale) (Zea mays (ZEAMX) [12]; rate 250 g/ha): 0
CCn1c(Oc2cc(F)cc(F)c2)cc(=O)c(C(=O)O)c1-c1ccc(Cl)c(Cl)c1 [Compound 15, 2-(3,4-dichlorophenyl)-6-(3,5-difluorophenoxy)-1-ethyl-4-oxo-pyridine-3-carboxylic acid] |  |  |  |  |  |  |  |  |  |  | 3 (3=41-60%) | 4 (4=61-80%) | 1 (1=0-20%) | 1 (1=0-20%) | 1 (1=0-20%) | 3 (3=41-60%) | 4 (4=61-80%) | 3 (3=41-60%) | 3 (3=41-60%) | 3 (3=41-60%) | 
CCn1c(Nc2ccc(F)cc2)cc(=O)c(C(=O)O)c1-c1ccc(Cl)c(Cl)c1 [Compound 9, 2-(3,4-dichlorophenyl)-1-ethyl-6-(4-fluoroanilino)-4-oxo-pyridine-3-carboxylic acid] | 0 | 0 | 0 | 0 | 0 | 1 (1=0-20%) | 1 (1=0-20%) | 2 (2=21-40%) | 1 (1=0-20%) | 4 (4=61-80%) |  |  |  |  |  |  |  |  |  |  | Post-Emergence Test ZEAMX percentage damage (five-point scale) (Zea mays (ZEAMX) [12]; rate 250 g/ha): 0
CCn1c(Oc2cccc(F)c2)cc(=O)c(C(=O)O)c1-c1ccc(Cl)c(Cl)c1 [Compound 12, 2-(3,4-dichlorophenyl)-1-ethyl-6-(3-fluorophenoxy)-4-oxo-pyridine-3-carboxylic acid] |  |  |  |  |  |  |  |  |  |  | 5 (5=81-100%) | 5 (5=81-100%) | 4 (4=61-80%) | 4 (4=61-80%) | 4 (4=61-80%) | 5 (5=81-100%) | 5 (5=81-100%) | 4 (4=61-80%) | 5 (5=81-100%) | 4 (4=61-80%) | 
CCn1c(Nc2ncc(F)cc2F)cc(=O)c(C(=O)O)c1-c1ccc(Cl)c(Cl)c1 [Compound 31, 2-(3,4-dichlorophenyl)-6-[(3,5-difluoro-2-pyridyl)amino]-1-ethyl-4-oxo-pyridine-3-carboxylic acid] |  |  |  |  |  |  |  |  |  |  | 1 (1=0-20%) | 1 (1=0-20%) | 1 (1=0-20%) | 1 (1=0-20%) | 0 | 2 (2=21-40%) | 2 (2=21-40%) | 1 (1=0-20%) | 2 (2=21-40%) | 0 | 
CCn1c(Oc2ccc(Cl)cc2)cc(=O)c(C(=O)O)c1-c1ccc(Cl)c(Cl)c1 [Compound 19, 6-(4-chlorophenoxy)-2-(3,4-dichlorophenyl)-1-ethyl-4-oxo-pyridine-3-carboxylic acid] |  |  |  |  |  |  |  |  |  |  | 1 (1=0-20%) | 4 (4=61-80%) | 0 | 1 (1=0-20%) | 0 | 4 (4=61-80%) | 5 (5=81-100%) | 3 (3=41-60%) | 3 (3=41-60%) | 3 (3=41-60%) | 
CCn1c(Oc2cccnc2F)cc(=O)c(C(=O)O)c1-c1ccc(Cl)c(Cl)c1 [Compound 34, 2-(3,4-dichlorophenyl)-1-ethyl-6-[(2-fluoro-3-pyridyl)oxy]-4-oxo-pyridine-3-carboxylic acid] |  |  |  |  |  |  |  |  |  |  | 3 (3=41-60%) | 4 (4=61-80%) | 3 (3=41-60%) | 4 (4=61-80%) | 2 (2=21-40%) | 3 (3=41-60%) | 3 (3=41-60%) | 4 (4=61-80%) | 2 (2=21-40%) | 3 (3=41-60%) | 
CCn1c(Nc2ccc(C)c(C(F)(F)F)c2)cc(=O)c(C(=O)O)c1-c1ccc(Cl)c(Cl)c1 [Compound 23, 2-(3,4-dichlorophenyl)-1-ethyl-6-[4-methyl-3-(trifluoromethyl)anilino]-4-oxo-pyridine-3-carboxylic acid] |  |  |  |  |  |  |  |  |  |  | 0 | 1 (1=0-20%) | 1 (1=0-20%) | 0 | 0 | 0 | 1 (1=0-20%) | 0 | 0 | 0 | 
CCn1c(Oc2ccc(Cl)cc2OC)cc(=O)c(C(=O)O)c1-c1ccc(Cl)c(Cl)c1 [Compound 26, 6-(4-chloro-2-methoxy-phenoxy)-2-(3,4-dichlorophenyl)-1-ethyl-4-oxo-pyridine-3-carboxylic acid] |  |  |  |  |  |  |  |  |  |  | 0 | 0 | 1 (1=0-20%) | 0 | 1 (1=0-20%) | 1 (1=0-20%) | 1 (1=0-20%) | 0 | 1 (1=0-20%) | 1 (1=0-20%) | 
